Among the data in patent US8921405B2, “Compounds” (Orexo AB, priority 2009, dated 2014) are inhibition and IC50 values, retold here.

The structures appear in SMILES notation. pIC50: −log10 of the molar value.

The target of the experiment is T1, recombinant human mPGES-1 (Homo sapiens, UniProt O14684).
T1 construct: made in house; host or cells: Rosetta E. coli (membrane/microsome fraction)
T1 sequence (O14684 1-152): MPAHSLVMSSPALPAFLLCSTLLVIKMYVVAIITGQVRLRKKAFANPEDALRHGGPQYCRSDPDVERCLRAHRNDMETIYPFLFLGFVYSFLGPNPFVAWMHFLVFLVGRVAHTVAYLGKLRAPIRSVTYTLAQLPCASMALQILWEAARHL
The experiment in a line: mPGES-1 HTRF assay (inhibition of PGE2 formation from PGH2). To be noted: HTRF assay; for inhibition at 10 µM: compound concentration of 10 μM, read-out: % inhibition. The format is biochemical. An outline of the steps:
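Microsomes of E. coli expressing human mPGES-1, in 0.1 M KPi pH 7.4 with 2.5 mM GSH, preincubated 25 min at room temperature with inhibitor, then given PGH2 for 1 min before FeCl2 acidic stop. PGE2 quantified by HTRF (665/620 nm ratio) against synthetic PGE2 standard curve; percent inhibition versus controls.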
On the technique in general: In TR-FRET formats the signal depends on donor and acceptor labels being close together.

For orientation: inhibition means the relative decrease from the control value, in per cent. Consider `Cn1c(Nc2cc(CNC(=O)OC(C)(C)C)ccc2Cl)nc2cc(C(=O)Nc3ccc(Br)cc3)ccc21` [Example 34, tert-Butyl 3-[5-(4-bromophenylcarbamoyl)-1-methyl-2-benzimidazolylamino]-4-chlorobenzylcarbamate], for which the inhibition at 10 µM turned out to be 100%.
For orientation: pIC50 means the negative decadic logarithm of the IC50, by convention in mol/L. Consider `Cn1c(Nc2cc(CNC(=O)C(C)(C)C)ccc2Cl)nc2cc(C(=O)NCC3CCC3)c(OCC(F)F)cc21` [Example 89, N-(Cyclobutylmethyl)-2-(2-chloro-5-{[(tert-butylcarbonyl)-amino]-methyl}-phenylamino)-6-(2,2-difluoro-ethoxy)-1-methyl-1H-benzimidazole-5-carboxylic acid amide], for which the pIC50 is 8.70.
Take `Cn1c(Nc2cc(CNC(=O)C3(C(F)(F)F)CC3)ccc2C(F)(F)F)nc2cc(C(=O)Nc3ccc(Br)cc3)c(OCC(F)F)cc21` [Example 83, N-(4-Bromo-phenyl)-2-(2-trifluoromethyl-5-{[(1-trifluoromethyl-cyclopropanecarbonyl)-amino]-methyl}-phenylamino)-6-(2,2-difluoro-ethoxy)-1-methyl-1H-benzimidazole-5-carboxylic acid amide]: the pIC50 was 8.52.
`Cn1c(Nc2cc(CNC(=O)C3(C#N)CC3)ccc2Cl)nc2cc(C(=O)Nc3ccc(Br)cc3)ccc21` [Example 38, N-(4-Bromophenyl)-2-{2-chloro-5-[(1-cyanocyclopropylamido)methyl]-phenylamino}-1-methylbenzimidazole-5-carboxamide]: the inhibition at 10 µM stood at 100%.
The same measure, in the same setting: as for `Cn1c(Nc2cc(CNC(=O)C3(C)CCCCC3)ccc2Cl)nc2cc(C(=O)NCCN3CCCCC3)ccc21` [Example 17, 2-{2-Chloro-5-[(1-methylcyclohexylamido)methyl]phenylamino]-1-methyl-N-[2-(1-piperidinyl)ethyl]benzimidazole-5-carboxamide], the figure is 95%; as for `Cn1c(Nc2cc(CNC(=O)C3(C(F)(F)F)CC3)ccc2Cl)nc2cc(C(=O)NC3CCC(F)(F)CC3)ccc21` [Example 54, 2-{2-chloro-5-[(1-trifluoromethylcyclopropylamido)methyl]phenylamino}-N-(4,4-difluorocyclohexyl)-1-methylbenzimidazole-5-carboxamide], 98%.
For `Cn1c(Nc2cc(CNC(=O)C(C)(C)C)ccc2Cl)nc2cc(C(=O)NCC3CC3(C)C)c(OCC(F)F)cc21` (centres unmarked) [Example 88, N-(2,2-Dimethylcyclopropyl-methyl)-2-(2-chloro-5-{[(tert-butylcarbonyl)-amino]-methyl}-phenylamino)-6-(2,2-difluoro-ethoxy)-1-methyl-1H-benzimidazole-5-carboxylic acid amide], the pIC50 is 8.70.
The same measure, in the same setting: as for `COc1cc2[nH]c(Nc3cc(CNC(=O)OC(C)(C)C)ccc3C(F)(F)F)nc2cc1C(=O)N[C@H]1CC[C@H](C(F)(F)F)CC1` [Example 91, 2-({5-[(tert.Butoxycarbonyl)amino]methyl}-2-trifluoromethyl-phenylamino)-6-methoxy-N-(trans-4-trifluoromethyl-cyclohex-1-yl)-1H-benzo[d]imidazole-5-carboxamide], the figure is 8.40.
In the case of `CC1(C(=O)NCc2ccc(Cl)c(Nc3nc4cc(Cl)c(C(=O)NC5CCCC5)cc4[nH]3)c2)CCCCC1` [Example 24, 6-Chloro-2-{2-chloro-5-[(1-methylcyclohexylamido)methyl]phenylamino}-N-cyclopentylbenzimidazole-5-carboxamide], the inhibition at 10 µM was 97%.
As for `Cn1c(Nc2cc(CNC(=O)[C@@H]3C[C@H]3c3ccccc3)ccc2Cl)nc2cc(C(=O)Nc3ccc(Br)cc3)ccc21` [Example 39, N-(4-Bromophenyl)-2-{2-chloro-5-[(trans-2-phenylcyclopropylamido)-methyl]phenylamino}-1-methylbenzimidazole-5-carboxamide], the inhibition at 10 µM was determined as 100%.
Still for that read-out and setting: as for `Cn1c(Nc2cc(CNC(=O)C3(C)CCCCC3)ccc2Cl)nc2cc(C(=O)NCC3CCCO3)ccc21` (centres unmarked) [Example 18, 2-{2-Chloro-5-[(1-methylcyclohexylamido)methyl]phenylamino]-1-methyl-N-[(2-tetrahydrofuryl)methyl]benzimidazole-5-carboxamide], the figure is 98%.
For `Cn1c(Nc2cc(CNC(=O)C3(C(F)(F)F)CC3)c(F)cc2Cl)nc2cc(C(=O)N[C@H]3CC[C@H](C(F)(F)F)CC3)c(OCC(F)F)cc21` [Example 84, 2-(2-Chloro-4-fluoro-5-{[(1-(trifluoromethyl)cyclopropanecarbonyl)amino]methyl}-phenylamino)-6-(2,2-difluoroethoxy)-1-methyl-N-(trans-4-trifluoromethyl-cyclohex-1-yl)-1 H-benzo[d]imidazole-5-carboxamide], the pIC50 is 8.40.
With `Cn1c(Nc2cc(CNC(=O)C3(C)CC3)ccc2Cl)nc2cc(C(=O)Nc3ccc(Br)cc3)ccc21` [Example 10], the inhibition at 10 µM was 100%.
In the case of `Cn1c(Nc2cc(CNC(=O)C3CCCO3)ccc2Cl)nc2cc(C(=O)NCC3CCCCC3)ccc21` (centres unmarked) [Example 28, 2-{2-Chloro-5-[(2-tetrahydrofurylamido)methyl]phenylamino}-N-cyclohexylmethyl-1-methylbenzimidazole-5-carboxamide], the inhibition at 10 µM is 100%.
For `Cn1c(Nc2cc(CNC(=O)C(C)(N)C(F)(F)F)ccc2Cl)nc2cc(C(=O)Nc3ccc(Br)cc3)c(OCC(F)F)cc21` (centres unmarked) [Example 75, N-(4-Bromo-phenyl)-2-(2-chloro-5-{[(1-amino-1-trifluoromethyl-ethyl-carbonyl)-amino]-methyl}-phenylamino)-6-(2,2-difluoro-ethoxy)-1-methyl-1H-benzimidazole-5-carboxylic acid amide], the pIC50 was 8.52.
Same read-out and setting: as for `COc1cc2[nH]c(Nc3cc(CNC(=O)C4(C(F)(F)F)CC4)ccc3C(F)(F)F)nc2cc1C(=O)N[C@H]1CC[C@H](C(F)(F)F)CC1` [Example 93, N-(trans-4-Trifluoromethyl-cyclohex-1-yl)-2-(2-trifluoromethyl-5-{[(1-trifluoromethylcyclopropane-carbonyl)amino]-methyl}-phenylamino)-6-methoxy-1H-benzimidazole-5-carboxylic acid amide], the figure is 8.70; as for `CN(C)CCn1c(Nc2cc(CNC(=O)C3(C(F)(F)F)CC3)ccc2Cl)nc2cc(C(=O)Nc3ccc(Br)cc3)ccc21` [Example 70, N-(4-Bromo-phenyl)-2-(2-chloro-5-{[(1-trifluoromethyl-cyclopropanecarbonyl)-amino]-methyl}-phenylamino)-1-(2-(dimethylamino)ethyl)-1H-benzimidazole-5-carboxylic acid amide], 8.52; as for `COc1cc2c(cc1C(N)=O)nc(Nc1cc(CNC(=O)C3(C(F)(F)F)CC3)ccc1Cl)n2C` [Example 65, 2-(2-chloro-5-{[(1-trifluoromethyl-cyclopropanecarbonyl)-amino]-methyl}-phenylamino)-6-methoxy-1-methyl-1H-benzimidazole-5-carboxylic acid amide], 6.52.
Regarding `Cn1c(Nc2cc(CNC(=O)OC(C)(C)C)ccc2Cl)nc2cc(C(=O)NCC3CCCCC3)ccc21` [Example 33], the inhibition at 10 µM amounted to 93%.
As for `CN1CCCCC1CNC(=O)c1ccc2c(c1)nc(Nc1cc(CNC(=O)C3(C)CCCCC3)ccc1Cl)n2C` (centres unmarked) [Example 19, 2-{2-Chloro-5-[(1-methylcyclohexylamido)methyl]phenylamino]-1-methyl-N-[(1-methyl-2-piperidinyl)methyl]benzimidazole-5-carboxamide], the inhibition at 10 µM is 98%.
